Data from patent publication US9914730B2, “Azaquinazoline inhibitors of Atypical protein Kinase C” (Ignyta, Inc., priority 2012, dated 2018).

Biological target: T1, full-length human PKCι (Homo sapiens, UniProt P41743)
T1 construct: Recombinant, full-length human PKCι expressed in Sf21 insect cells is also commercially available; purchased; host or cells: Sf21 insect cells
T1 sequence (P41743 1-596): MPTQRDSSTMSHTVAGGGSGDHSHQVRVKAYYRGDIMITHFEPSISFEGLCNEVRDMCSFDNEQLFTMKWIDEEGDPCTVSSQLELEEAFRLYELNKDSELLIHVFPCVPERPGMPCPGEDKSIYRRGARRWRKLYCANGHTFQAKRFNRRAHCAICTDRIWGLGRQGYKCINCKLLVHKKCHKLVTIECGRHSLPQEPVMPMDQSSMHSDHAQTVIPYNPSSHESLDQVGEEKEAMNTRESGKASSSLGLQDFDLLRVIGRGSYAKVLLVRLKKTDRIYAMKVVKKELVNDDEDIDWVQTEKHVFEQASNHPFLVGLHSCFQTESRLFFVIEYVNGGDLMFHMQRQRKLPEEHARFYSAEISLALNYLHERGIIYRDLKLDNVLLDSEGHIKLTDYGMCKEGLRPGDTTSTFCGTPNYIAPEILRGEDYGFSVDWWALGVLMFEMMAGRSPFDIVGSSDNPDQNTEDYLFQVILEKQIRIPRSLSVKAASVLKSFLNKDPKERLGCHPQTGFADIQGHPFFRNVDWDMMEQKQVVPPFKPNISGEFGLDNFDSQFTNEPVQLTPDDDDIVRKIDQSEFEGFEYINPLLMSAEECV
Test: PKCι IC50 IMAP assay, full-length PKCι at 150 μM ATP
Format: biochemical
Conditions: read-out: IC50 in IMAP assay against full length PKCi at 150 μM ATP
Summary of the method: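 IMAP fluorescence polarisation (ex 485/em 530 nm) read-out; % inhibition set from no-compound (0%) and no-enzyme (100%) controls, IC50 from dose-response curve fit. Sf21-expressed full-length enzyme ~15 pM, 100 nM FAM peptide, ATP 150 μM (5× KM^APP), 60 min at RT.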

Structure (SMILES)	IC50 [nM]
CCCc1ccc(F)c(Nc2cc(-c3nc(N4CCNCC4)c4c(C5CC5)cncc4n3)ccn2)c1 [Example 640, [4-(5-Cyclopropyl-4-piperazin-1-yl-pyrido[3,4-d]pyrimidin-2-yl)-pyridin-2-yl]-(2-fluoro-5-propyl-phenyl)-amine]	< 100
c1ccc2c(c1)[nH]c1nccc(-c3nc(N4CCNCC4)c4ccncc4n3)c12 [Example 2091, 4-(4-Piperazin-1-yl-pyrido[3,4-d]pyrimidin-2-yl)-9H-pyrido[2,3-b]indole]	< 100
Fc1ccccc1Nc1cc(-c2nc(N3CCNCC3)c3c(C4CC4)cncc3n2)ccn1 [Example 263, [4-(5-Cyclopropyl-4-piperazin-1-yl-pyrido[3,4-d]pyrimidin-2-yl)-pyridin-2-yl]-(2-fluoro-phenyl)-amine]	< 100
Cc1ccc(C(F)(F)F)cc1Nc1cc(-c2nc(N3CCNCC3)c3c(C4CC4)cncc3n2)ccn1 [Example 554, [4-(5-Cyclopropyl-4-piperazin-1-yl-pyrido[3,4-d]pyrimidin-2-yl)-pyridin-2-yl]-(2-methyl-5-trifluoromethyl-phenyl)-amine]	100 to 1000
CS(=O)(=O)C[C@H]1CN(c2nc(-c3ccnc(Nc4ccc(F)cc4)c3)nc3cncc(C4CC4)c23)CCN1 [Example 771, {4-[5-Cyclopropyl-4-((R)-3-methanesulfonyl-methyl-piperazin-1-yl)-pyrido[3,4-d]pyrimidin-2-yl]-pyridin-2-yl}-(4-fluoro-phenyl)-amine]	1000 to 10000
COc1cccc(CC(=O)Nc2cc(-c3nc(N[C@@H]4CCNC4)c4ccncc4n3)ccn2)c1 [Example 337, 2-(3-Methoxy-phenyl)-N-{4-[4-((R)-pyrrolidin-3-ylamino)-pyrido[3,4-d]pyrimidin-2-yl]-pyridin-2-yl}-acetamide]	< 100
NC(=O)COc1cccc(Nc2cc(-c3nc(N[C@@H]4CCNC4)c4ccncc4n3)ccn2)c1 [Example 311, 2-(3-{4-[4-((R)-Pyrrolidin-3-ylamino)-pyrido[3,4-d]pyrimidin-2-yl]-pyridin-2-ylamino}-phenoxy)-acetamide]	< 100
Fc1ccc(C(F)(F)F)cc1Nc1cc(-c2nc(N3CCNCC3)c3c(C4CC4)cncc3n2)ccn1 [Example 522, [4-(5-Cyclopropyl-4-piperazin-1-yl-pyrido[3,4-d]pyrimidin-2-yl)-pyridin-2-yl]-(2-fluoro-5-trifluoromethyl-phenyl)-amine]	100 to 1000
Cn1ccc(Nc2cc(-c3nc(N4CCNC(C)(C)C4)c4c(C5CC5)cncc4n3)ccn2)n1 [Example 832, {4-[5-Cyclopropyl-4-(3,3-dimethyl-piperazin-1-yl)-pyrido[3,4-d]pyrimidin-2-yl]-pyridin-2-yl}-(1-methyl-1H-pyrazol-3-yl)-amine]	< 100
Fc1cccc(Cl)c1Nc1cc(-c2nc(N3CCNCC3)c3c(C4CC4)cncc3n2)ccn1 [Example 616, (2-Chloro-6-fluoro-phenyl)-[4-(5-cyclopropyl-4-piperazin-1-yl-pyrido[3,4-d]pyrimidin-2-yl)-pyridin-2-yl]-amine]	< 100
CN(c1nc(-c2ccnc(Nc3c(F)cccc3F)c2)nc2cncc(C3CC3)c12)C1CCNCC1 [Example 833, {5-Cyclopropyl-2-[2-(2,6-difluoro-phenylamino)-pyridin-4-yl]-pyrido[3,4-d]pyrimidin-4-yl}-methyl-piperidin-4-yl-amine]	< 100
CNC(=O)C1CCCN(c2nc(-c3ccnc(Nc4c(F)cccc4F)c3)nc3cncc(C4CC4)c23)C1 (stereo not drawn) [Example 707, 1-{5-Cyclopropyl-2-[2-(2,6-difluoro-phenylamino)-pyridin-4-yl]-pyrido[3,4-d]pyrimidin-4-yl}-piperidine-3-carboxylic acid methylamide]	10000 to 40000
Cc1ccnc(Nc2cc(-c3nc(N[C@@H]4CCNC4)c4ccncc4n3)ccn2)c1 [Example 338, {2-[2-(4-Methyl-pyridin-2-ylamino)-pyridin-4-yl]-pyrido[3,4-d]pyrimidin-4-yl}-(R)-pyrrolidin-3-yl-amine]	1000 to 10000
c1ccc(C[C@@H]2CN(c3nc(-c4ccncc4)nc4cnccc34)CCN2)cc1 [Example 17, (3R)-3-benzyl-1-[2-(pyridin-4-yl)-pyrido[3,4-d]-pyrimidin-4-yl]-piperazine]	1000 to 10000
CC(C)(C)C(=O)N1CCC(Nc2cc(-c3nc(N4CCNCC4)c4c(C5CC5)cncc4n3)ccn2)CC1 [Example 813, 1-{4-[4-(5-Cyclopropyl-4-piperazin-1-yl-pyrido[3,4-d]pyrimidin-2-yl)-pyridin-2-ylamino]-piperidin-1-yl}-2,2-dimethyl-propan-1-one]	< 100
COc1cncc2nc(-c3ccnc(Nc4cccnc4)c3)nc(N3CCNCC3)c12 [Example 378, [4-(5-Methoxy-4-piperazin-1-yl-pyrido[3,4-d]pyrimidin-2-yl)-pyridin-2-yl]-pyridin-3-yl-amine]	< 100
CC(C)c1ccc(Nc2cc(-c3nc(N4CCNCC4)c4c(C5CC5)cncc4n3)ccn2)c(F)c1 [Example 714, [4-(5-Cyclopropyl-4-piperazin-1-yl-pyrido[3,4-d]pyrimidin-2-yl)-pyridin-2-yl]-(2-fluoro-4-isopropyl-phenyl)-amine]	< 100
Cn1cc(-c2nccc3c(NC[C@@H](N)Cc4ccccc4)nc(-c4ccncc4)nc23)cn1 [Example 98, N-[(2S)-2-amino-3-phenylpropyl]-8-(1-methyl-1H-pyrazol-4-yl)-2-(pyridin-4-yl)-pyrido[3,4-d]-pyrimidin-4-amine]	1000 to 10000
c1cnc(Nc2cc(-c3nc(N[C@@H]4CCNC4)c4ccncc4n3)ccn2)cn1 [Example 243, {2-[2-(Pyrazin-2-ylamino)-pyridin-4-yl]-pyrido[3,4-d]pyrimidin-4-yl}-(R)-pyrrolidin-3-yl-amine]	1000 to 10000
Fc1cc(F)c2nc(Nc3cc(-c4nc(N5CCNCC5)c5c(C6CC6)cncc5n4)ccn3)nn2c1 [Example 2040, [4-(5-Cyclopropyl-4-piperazin-1-yl-pyrido[3,4-d]pyrimidin-2-yl)-pyridin-2-yl]-(6,8-difluoro-[1,2,4]triazolo[1,5-a]pyridin-2-yl)-amine]	< 100
CCn1cc(Cl)c(Nc2cc(-c3nc(N4CCNCC4)c4c(C5CC5)cncc4n3)ccn2)n1 [Example 2015, (4-Chloro-1-ethyl-1H-pyrazol-3-yl)-[4-(5-cyclopropyl-4-piperazin-1-yl-pyrido[3,4-d]pyrimidin-2-yl)-pyridin-2-yl]-amine]	< 100
CN(c1nc(-c2ccnc(Nc3nc(F)c(F)cc3F)c2)nc2cncc(C3CCC3)c12)C1CCNCC1 [Example 2163, {5-Cyclobutyl-2-[2-(3,5,6-trifluoro-pyridin-2-ylamino)-pyridin-4-yl]-pyrido[3,4-d]pyrimidin-4-yl}-methyl-piperidin-4-yl-amine]	< 100
COc1cncc2nc(-c3ccncc3)nc(N3CCC(N)(C(N)=O)C3)c12 (stereo not drawn) [Example 152, 3-Amino-1-(5-methoxy-2-pyridin-4-yl-pyrido[3,4-d]pyrimidin-4-yl)-pyrrolidine-3-carboxylic acid amide]	1000 to 10000
CN1CCP(=O)(c2ccc(Nc3cc(-c4nc(N5CCNCC5)c5c(C6CC6)cncc5n4)ccn3)cc2)CC1 [Example 614, [4-(5-Cyclopropyl-4-piperazin-1-yl-pyrido[3,4-d]pyrimidin-2-yl)-pyridin-2-yl]-[4-(1-methyl-4-oxo-4λ^5-[1,4]azaphos-phinan-4-yl)-phenyl]-amine]	< 100
